Reference: patent US20250263390A1, “NOVEL SUBSTITUTED 6,7-DIHYDRO-5H-BENZO[7]ANNULENE COMPOUNDS AND THEIR DERIVATIVES, PROCESSES FOR THEIR PREPARATION AND THERAPEUTIC USES THEREOF” (SANOFI, priority 2022, published 2025)

These compounds were tested against T1, ERα (Homo sapiens, UniProt P03372) (assay: Estrogen receptor degradation activity: breast cancer cell ERα in cell western assay). Settings: MCF7 cells, 4 hours, relative to fulvestrant 0.1 μM positive control.
T1 construct: host or cells: MCF7
T1 sequence (P03372 1-595): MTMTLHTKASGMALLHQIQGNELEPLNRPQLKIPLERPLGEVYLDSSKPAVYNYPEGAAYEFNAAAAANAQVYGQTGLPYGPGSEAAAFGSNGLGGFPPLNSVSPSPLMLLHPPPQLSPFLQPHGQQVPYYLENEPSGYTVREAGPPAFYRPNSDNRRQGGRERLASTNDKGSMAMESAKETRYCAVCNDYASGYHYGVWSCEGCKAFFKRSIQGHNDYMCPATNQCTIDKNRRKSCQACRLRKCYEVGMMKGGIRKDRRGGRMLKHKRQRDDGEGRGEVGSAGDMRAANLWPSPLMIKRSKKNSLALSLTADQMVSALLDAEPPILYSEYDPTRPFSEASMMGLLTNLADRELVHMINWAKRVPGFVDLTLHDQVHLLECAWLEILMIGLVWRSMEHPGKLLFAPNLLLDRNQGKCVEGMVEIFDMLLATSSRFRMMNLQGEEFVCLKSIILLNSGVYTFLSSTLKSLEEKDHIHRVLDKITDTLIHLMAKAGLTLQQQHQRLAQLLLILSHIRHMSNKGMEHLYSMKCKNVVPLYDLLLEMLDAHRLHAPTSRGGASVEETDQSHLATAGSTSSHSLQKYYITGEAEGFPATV
Type: cell-based
Method in brief: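 MCF7 cells in phenol red-free medium with 5% charcoal-stripped FBS, 4 h exposure to 9-point 1:5 dilutions (final 0.3–0.0000018 μM). ERα immunostained in fixed cells and normalised to DNA dye; % decrease scaled between DMSO and 0.1 μM fulvestrant, IC50 reported in nM.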

Row | Structure (SMILES) | % Degradation At 0.3 μM
1 | Cc1cc(C)c(C2=C(c3ccc(CC4CN(CCCF)C4)cc3)c3ccc(C(=O)O)cc3CCC2)c(Cl)c1 [Compound 53, 8-(2-chloro-4,6-dimethylphenyl)-9-(4-((1-(3-fluoropropyl)azetidin-3-yl)methyl)phenyl)-6,7-dihydro-5H-benzo[7]annulene-3-carboxylic acid] | 88%
2 | Cc1cccc(C2=C(c3ccc(CC4CN(CCCF)C4)cc3)c3ccc(C(=O)O)cc3CCC2)c1C(F)F.Cl [Compound 54, 8-(2-(difluoromethyl)-3-methylphenyl)-9-(4-((1-(3-fluoropropyl)azetidin-3-yl)methyl)phenyl)-6,7-dihydro-5H-benzo[7]annulene-3-carboxylic acid, hydrochloride] | 90%
3 | COc1cc(C)c(C2=C(c3ccc(CC4CN(CCCF)C4)cc3)c3ccc(C(=O)O)cc3CCC2)c(C)c1 [Compound 55, 9-(4-((1-(3-fluoropropyl)azetidin-3-yl)methyl)phenyl)-8-(4-methoxy-2,6-dimethylphenyl)-6,7-dihydro-5H-benzo[7]annulene-3-carboxylic acid] | 95%
4 | Cc1ccc(C2=C(c3ccc(CC4CN(CCCF)C4)cc3)c3ccc(C(=O)O)cc3CCC2)cc1O [Compound 56, 9-(4-((1-(3-fluoropropyl)azetidin-3-yl)methyl)phenyl)-8-(3-hydroxy-4-methylphenyl)-6,7-dihydro-5H-benzo[7]annulene-3-carboxylic acid] | 95%
5 | COc1ccc(C(F)F)c(C2=C(c3ccc(CC4CN(CCCF)C4)cc3)c3ccc(C(=O)O)cc3CCC2)c1.Cl [Compound 60, 8-(2-(difluoromethyl)-5-methoxyphenyl)-9-(4-((1-(3-fluoropropyl)azetidin-3-yl)methyl)phenyl)-6,7-dihydro-5H-benzo[7]annulene-3-carboxylic acid, hydrochloride] | 95%
6 | COc1c(F)ccc(C)c1C1=C(c2ccc(CC3CN(CCCF)C3)cc2)c2ccc(C(=O)O)cc2CCC1 [Compound 65, 8-(3-fluoro-2-methoxy-6-methylphenyl)-9-(4-((1-(3-fluoropropyl)azetidin-3-yl)methyl)phenyl)-6,7-dihydro-5H-benzo[7]annulene-3-carboxylic acid] | 100%
7 | Cc1cccc(C(F)F)c1C1=C(c2ccc(CC3CN(CCCF)C3)cc2)c2ccc(C(=O)O)cc2CCC1 [Compound 66, 8-(2-(difluoromethyl)-6-methylphenyl)-9-(4-((1-(3-fluoropropyl)azetidin-3-yl)methyl)phenyl)-6,7-dihydro-5H-benzo[7]annulene-3-carboxylic acid] | 90%
8 | COc1ccc(C2=C(c3ccc(CC4CN(CCCF)C4)cc3)c3ccc(C(=O)O)cc3CCC2)cc1OC [Compound 71, 8-(3,4-dimethoxyphenyl)-9-(4-((1-(3-fluoropropyl)azetidin-3-yl)methyl)phenyl)-6,7-dihydro-5H-benzo[7]annulene-3-carboxylic acid] | 96%
9 | COc1cc(C)cc(C)c1C1=C(c2ccc(CC3CN(CCCF)C3)cc2)c2ccc(C(=O)O)cc2CCC1 [Compound 72, 9-(4-((1-(3-fluoropropyl)azetidin-3-yl)methyl)phenyl)-8-(2-methoxy-4,6-dimethylphenyl)-6,7-dihydro-5H-benzo[7]annulene-3-carboxylic acid] | 91%
10 | Cc1ccc(F)c(C)c1C1=C(c2ccc(CC3CN(CCCF)C3)cc2)c2ccc(C(=O)O)cc2CCC1 [Compound 73, 8-(3-fluoro-2,6-dimethylphenyl)-9-(4-((1-(3-fluoropropyl)azetidin-3-yl)methyl)phenyl)-6,7-dihydro-5H-benzo[7]annulene-3-carboxylic acid] | 84%

Next, values leading:

Row | % Degradation At 0.3 μM | Structure (SMILES)
11 | 92% | Cc1ccc(C2=C(c3ccc(CC4CN(CCCF)C4)cc3)c3ccc(C(=O)O)cc3CCC2)c(C)c1F [Compound 57, 8-(3-fluoro-2,4-dimethylphenyl)-9-(4-((1-(3-fluoropropyl)azetidin-3-yl)methyl)phenyl)-6,7-dihydro-5H-benzo[7]annulene-3-carboxylic acid]
12 | 90% | Cc1ccc(C2=C(c3ccc(CC4CN(CCCF)C4)cc3)c3ccc(C(=O)O)cc3CCC2)c(C)c1Cl [Compound 58, 8-(3-chloro-2,4-dimethylphenyl)-9-(4-((1-(3-fluoropropyl)azetidin-3-yl)methyl)phenyl)-6,7-dihydro-5H-benzo[7]annulene-3-carboxylic acid]
13 | 95% | O=C(O)c1ccc2c(c1)CCCC(c1cccc(C(F)(F)F)c1C(F)(F)F)=C2c1ccc(CC2CN(CCCF)C2)cc1 [Compound 59, 8-(2,3-bis(trifluoromethyl)phenyl)-9-(4-((1-(3-fluoropropyl)azetidin-3-yl)methyl)phenyl)-6,7-dihydro-5H-benzo[7]annulene-3-carboxylic acid]
14 | 90% | Cc1c(O)cccc1C1=C(c2ccc(CC3CN(CCCF)C3)cc2)c2ccc(C(=O)O)cc2CCC1.Cl [Compound 61, 9-(4-((1-(3-fluoropropyl)azetidin-3-yl)methyl)phenyl)-8-(3-hydroxy-2-methylphenyl)-6,7-dihydro-5H-benzo[7]annulene-3-carboxylic acid, hydrochloride]
15 | 95% | CC(F)(F)c1cc(F)ccc1C1=C(c2ccc(CC3CN(CCCF)C3)cc2)c2ccc(C(=O)O)cc2CCC1 [Compound 62, 8-(2-(1,1-difluoroethyl)-4-fluorophenyl)-9-(4-((1-(3-fluoropropyl)azetidin-3-yl)methyl)phenyl)-6,7-dihydro-5H-benzo[7]annulene-3-carboxylic acid]
16 | 90% | COc1cccc(C(F)(F)F)c1C1=C(c2ccc(CC3CN(CCCF)C3)cc2)c2ccc(C(=O)O)cc2CCC1 [Compound 63, 9-(4-((1-(3-fluoropropyl)azetidin-3-yl)methyl)phenyl)-8-(2-methoxy-6-(trifluoromethyl)phenyl)-6,7-dihydro-5H-benzo[7]annulene-3-carboxylic acid]
17 | 100% | Cc1c(C2=C(c3ccc(CC4CN(CCCF)C4)cc3)c3ccc(C(=O)O)cc3CCC2)ccc(C(F)(F)F)c1F.Cl [Compound 64, 8-(3-fluoro-2-methyl-4-(trifluoromethyl)phenyl)-9-(4-((1-(3-fluoropropyl)azetidin-3-yl)methyl)phenyl)-6,7-dihydro-5H-benzo[7]annulene-3-carboxylic acid, hydrochloride]
18 | 93% | CCc1c(C2=C(c3ccc(CC4CN(CCCF)C4)cc3)c3ccc(C(=O)O)cc3CCC2)cccc1C(F)(F)F [Compound 67, 8-(2-ethyl-3-(trifluoromethyl)phenyl)-9-(4-((1-(3-fluoropropyl)azetidin-3-yl)methyl)phenyl)-6,7-dihydro-5H-benzo[7]annulene-3-carboxylic acid]
19 | 92% | CCc1cccc(C2=C(c3ccc(CC4CN(CCCF)C4)cc3)c3ccc(C(=O)O)cc3CCC2)c1C(F)(F)F [Compound 68, 8-(3-ethyl-2-(trifluoromethyl)phenyl)-9-(4-((1-(3-fluoropropyl)azetidin-3-yl)methyl)phenyl)-6,7-dihydro-5H-benzo[7]annulene-3-carboxylic acid]
20 | 91% | CCc1cc(C(F)(F)F)ccc1C1=C(c2ccc(CC3CN(CCCF)C3)cc2)c2ccc(C(=O)O)cc2CCC1 [Compound 69, 8-(2-ethyl-4-(trifluoromethyl)phenyl)-9-(4-((1-(3-fluoropropyl)azetidin-3-yl)methyl)phenyl)-6,7-dihydro-5H-benzo[7]annulene-3-carboxylic acid]
21 | 92% | CCc1ccc(C2=C(c3ccc(CC4CN(CCCF)C4)cc3)c3ccc(C(=O)O)cc3CCC2)c(C(F)(F)F)c1 [Compound 70, 8-(4-ethyl-2-(trifluoromethyl)phenyl)-9-(4-((1-(3-fluoropropyl)azetidin-3-yl)methyl)phenyl)-6,7-dihydro-5H-benzo[7]annulene-3-carboxylic acid]
